Test results: US12049475B2, “Bisphosphonate drug conjugates” (BRISE PHARMACEUTICALS CO., LTD., priority 2018, dated 2024)
“Also recorded” adds a separate entry of the source.

Experiments:
[1] = tested on: CED mice; test: CED mouse model, 8-week treatment: μCT of tibia and fracture incidence; conditions: for total BV/TV: among all groups; for bone fracture incidence: 100 μg/kg i.p. once a week, 2-month (8-week) treatment
Procedure: All transgenic animals used in this study are as described in the Animals section. […] During cell counting, microCT analysis and histological staining analysis, all manual quantification is performed in a blind manner to eliminate observer bias. Animals were randomly assigned to groups for experiments in CED animal studies.
(§1) Mice: According to Tang et al., Nat Med. 15:757-765 (2009), a mutation in the coding area of the TGF-β1 latency protein was generated in mice, and the active form of TGF-β1 was secreted by osteoblasts. […] All mice received the intraperitoneal injections once a week for 2 months, beginning at 1 month of age until sacrifice at 3 months of age. The tibias of the mice were collected and analyzed.
Microcomputed tomography analysis: Tibia collected from mice were dissected to remove soft tissue, fixed overnight in 70% ethanol, and analyzed with a high-resolution microcomputed tomography (μCT) imaging system (MicroCT40; Scanco Medical AG, Basserdorf, Switzerland). The scanner was set at a voltage of 55 kVp and a current of 109 μA. The resulting two-dimensional longitude-sectional images or three-dimensional whole-bone images are shown in gray scale. Three-dimensional structural parameters, total bone volume per tissue volume, cortical bone volume, cortical bone thickness, and cortical bone porosity were given.

[2] = tested on: CED mice; test: CED mouse model: histology and immunofluorescence of tibia (HE, TRAP, Ocn, Osx, Col1, CD31/Emcn, LepR); type: in vivo; conditions: for number of Col1+ cells compared with Littermate group / number of Ocn+ cells compared with Littermate group / number of Osx+ cells compared with Littermate group: co-staining with Emcn; for LepR+pSmad2/3+ dual positive BMSC (immunofluorescence): tibia sections
Procedure: as §1
(§2) Immunostaining was performed using a standard protocol.
Immunofluorescence staining was performed using as described. […] Secondary antibodies conjugated with fluorescence were added, and slides were incubated at room temperature for 1 h while avoiding light. Sections were microphotographed to perform histomorphometric measurements (Olympus DP71). The quantitative histomorphometric analysis was conducted in a blinded fashion with OsteoMeasureXP Software (OsteoMetrics, Inc.). […]

[3] = tested on: CED mice; test: CED mouse model: flow cytometry of tibia bone marrow cells; type: in vivo; conditions: for CD31+Emcn+ double positive cells (FACS of tibia bone marrow): 8-week treatment; for number of LepR+ cells in bone marrow (FACS): distal one-third of tibia, 2 months of treatment
Procedure: Flow cytometry: Bone marrow cells in the distal one-third of tibia were collected from each group (n=6) after 2 months of conjugate treatment. Red blood cells were lysed in commercial ACK lysis buffer (Quality Biological, Inc., 118-156-101). After centrifugation (1,200 r.p.m. for 5 min at room temperature), cell pellets were resuspended and fixed in 4% PFA. Cells were then washed with 0.1% BSA in PBS and counted. One million cells per milliliter were permeabilized in 0.1% Triton X-100 before blocking in 3% FACS buffer (PBS, 3% FBS, and 0.1% NaN3 sodium azide) for 30 min on ice. Cells were incubated with endomucin antibody (Santa Cruz, sc-65495), Leptin Receptor (R&D, 1:100, AF497), or isotype control antibody for 1 h at 37° C. in a dark room and then washed twice with 0.1% BSA in PBS. After washing, cells were stained with APC-conjugated CD31 antibody (R&D Systems, FAB3628A) for 45 min. Cells were acquired immediately after washing with 3% FACS buffer. Probes were analyzed using a FACS Calibur flow cytometer and CellQuest software (Becton Dickinson).

[4] = pharmaceutical data, cited from earlier work
[5] = tested on: TGF-β1 signaling (pSmad2) in HeLa cells; test: Western blot of pSmad2 in HeLa cells exposed to TGF-β1; type: cell-based, human
Procedure: (§3) Cell culture: HeLa cells and BMSCs from mice were cultured in Dulbecco's Modified Eagle's Medium (GIBCO) supplemented with 10% fetal bovine serum (FBS; Sigma), 100 units/ml penicillin, 100 μg/ml streptomycin (Sigma), and 2 mM glutamine and were incubated at 37° C. in a humidified chamber supplemented with 5% CO2. […] Cells were then exposed to 5 ng/ml of recombinant human TGF-β1 (R&D Systems) for 30 min and processed for cell staining and Western blotting.
Western blot: HeLa cells were lysed with […] and […] (Roche), and mixed with an equal volume of 2×SDS-PAGE sample buffer with DTT. Samples were boiled and cleared by centrifuge, separated by SDS-PAGE, and transferred onto nitrocellulose (NC) membranes. Membranes were blocked with 5% non-fat dry milk and incubated with primary antibodies at 4° C. overnight. Primary antibodies include rabbit anti-Smad2 antibody (Cell Signaling Technology, 3122, 1:1,000) and rabbit anti-Phospho-Smad2 (Ser465/467) antibody (Cell Signaling Technology, 3108, 1:1,000). HRP-conjugated goat anti-rabbit IgG (Santa Cruz Biotechnology, 2054, 1:5,000) was used as secondary antibody. Signals were detected with Super Signal West Dura Extended Duration Substrate (Thermo Scientific).

[6] = tested on: TGF-β1 signaling (pSmad2/3) in BMSCs; test: pSmad2/3 immunofluorescence staining of BMSCs exposed to TGF-β1; type: cell-based, mice; conditions: 10 μM for 1 h, 24 h, 48 h, then 5 ng/ml TGF-β1 for 30 min
Procedure: as §3
Cell staining: BMSCs were washed 3 times with PBS and fixed by 4% paraformaldehyde (PFA) for 30 min. Cells were then washed 3 times with PBS and incubated with 3% BSA, 0.1% Triton in PBS for 1 h. […] Secondary antibodies conjugated with fluorescence were added, and plates were incubated at room temperature for 1 h while avoiding light. Cells were counted under the microscope (Olympus DP71).

[7] = tested on: wild-type mice; test: 7-day survival of wild-type mice after conjugate injection; type: in vivo
Procedure: FIG. 1 presents graphs showing that a conjugate of the present disclosure, Compound 1, delivers a TβR1I specifically to bone and releases it in a time-dependent manner. […] Part (C) presents quantification of the Western-blot band intensity in (B). Data are presented as relative level of p-SMAD2/SMAD2 ratio normalized to DMSO condition. […] Part (E) presents quantification data of pSmad2/3^+ cells in (D). […] Of 6 mice in the 5 mg/kg group, 2 died in 7 days. […] Part (H) presents quantification data of pSmad2/3^+ cells in (G). In FIG. 1, the following conventions are used: NS, not significant. **P<0.01, ****P<0.0001 determined by multifactorial ANOVA. All data are reported as the mean±s.d.

[8] = tested on: TGF-β1 signaling pathway; test: CED mouse model: pSmad2/3 immunohistochemistry of tibia; type: in vivo, mice; conditions: 8-week treatment, compared with CED group and ALN group
Procedure: as §1, §2
Immunofluorescence staining was performed using as described. […] Secondary antibodies conjugated with fluorescence were added, and slides were incubated at room temperature for 1 h while avoiding light. Sections were microphotographed to perform histomorphometric measurements (Olympus DP71). The quantitative histomorphometric analysis was conducted in a blinded fashion with OsteoMeasureXP Software (OsteoMetrics, Inc.). The number of positively stained cells in the whole tibia subchondral bone area per specimen was counted in five sequential sections per mouse in each group.

[9] = tested on: heart, liver, lung, and kidney; test: HE and pSmad2/3 staining of heart, liver, kidney and lung; type: in vivo, mice; conditions: after conjugate administration
Procedure: as §2

[10] = tested on: TGF-β1 signaling in tibias; test: pSmad2/3 staining of tibias after intraperitoneal injection (bone delivery and release); conditions: 100 μg/kg intraperitoneal injection, compared with vehicle control
Procedure: Histochemistry, immunohistochemistry, and immunofluorescence: At the time of euthanasia, tibias were collected and fixed in 10% buffered formalin for 48 h, decalcified in 10% EDTA (pH 7.4) for 14 d, and then embedded in paraffin. […] Immunostaining was performed using a standard protocol. Sections were incubated with primary antibodies to mouse pSmad2/3 (Santa Cruz Biotechnology Inc., 1:50, sc-11769) and osteocalcin (Takara Bio Inc., 1:200, M137) overnight at 4° C. For immunohistochemical staining, a liquid Diaminobenzidine (DAB)+Chromogen System (Dako, K3468) was used to detect immunoreactivity, followed by counterstaining with hematoxylin and eosin (Sigma-Aldrich, MHS16).
Compound 1 was also tested for tissue distribution following intraperitoneal injection. […] It was then determined whether the conjugate delivered TβR1I (TGF-beta type 1 receptor inhibitor) specifically to bone and hydrolyzed over time (intraperitoneal injection, DMSO, 100 μg/kg of ALN, Inhibitor, or Conjugate).

[11] = tested on: bone metastasis; conditions: literature; cited from earlier work
[12] = tested on: CED mice; conditions: intraperitoneal injection; Nat Med. 15:757-765 (2009); cited from earlier work

NCCCC(O)(P(=O)(O)O)P(=O)(O)O [ALN, 4-amino-1-hydroxybutylidene-1,1-bisphosphonic acid monosodium trihydrate, reference compound]
bone porosity rate ([1]; 100 μg/kg per week, 8 weeks): significantly increased
cortical bone thickness ([1]; 100 μg/kg per week, 8 weeks): significantly increased
total cortical bone volume ([1]; 100 μg/kg per week, 8 weeks): decreased
total BV/TV ([1]; 100 μg/kg per week, 8 weeks): no significant difference
bone fracture incidence ([1]; CED mice): 50%
CD31+Emcn+ vessel surfaces (immunofluorescence) ([2]; 8-week treatment): highly increased
bone formation in diaphysis bone marrow (HE staining) ([2]; 8-week treatment, compared with Conjugate and Littermate group): aberrant bone formation was found
number of Col1+ cells compared with Littermate group [2]: significantly increased
number of Ocn+ cells compared with Littermate group [2]: significantly increased
number of Osx+ cells compared with Littermate group [2]: significantly increased
LepR+pSmad2/3+ dual positive BMSC (immunofluorescence) [2]: significantly increased
CD31+Emcn+ double positive cells (FACS of tibia bone marrow) [3]: highly increased
number of LepR+ cells in bone marrow (FACS) [3]: significantly increased
time to reach bone [4]: less than 2 hours
fraction that reaches bone ([4]; the rest is excreted in urine): 50-70%

O=C(NCCCC(O)(P(=O)(O)O)P(=O)(O)O)OCCOc1ccc2c(-c3c(-c4ccccn4)nn4c3CCC4)ccnc2c1 [Compound 1, (1-hydroxy-4-(((2-((4-(2-(pyridin-2-yl)-5,6-dihydro-4H-pyrrolo[1,2-b]pyrazol-3-yl)quinolin-7-yl)oxy)ethoxy)carbonyl)amino)butane-1,1-diyl)bis(phosphonic acid)]
expression level of pSmad2 (Western blot) ([5]; HeLa cells, 10 μM for 1 h, 24 h, 48 h, then 5 ng/ml TGF-β1 for 30 min): significantly reduced
start of TβR1I release in cells (after) ([5]; Western blotting and immunofluorescence staining): ≥ 24 h
number of pSmad2/3-positive cells (immunofluorescence) [6]: significantly reduced
7-day survival ([7]; 50 μg/kg, one intraperitoneal injection per week, n=6): no mice death; also recorded: survived for 7 days
7-day survival ([7]; 100 μg/kg, one intraperitoneal injection per week, n=6): no mice death; also recorded: survived for 7 days
7-day survival ([7]; 1 mg/kg, one intraperitoneal injection per week, n=6): no mice death; also recorded: survived for 7 days
mice that died in 7 days (of 6) ([7]; 5 mg/kg, one intraperitoneal injection per week): 2
7-day survival ([7]; 10 mg/kg, one intraperitoneal injection per week): all died in 3 days
safe dose ([7]; intraperitoneal administration, wild-type mice): below 5 mg/kg per week
cortical bone parameters compared with Littermate group ([1]; 100 μg/kg per week, 8 weeks): no significant difference
total BV/TV ([1]; 100 μg/kg per week, 8 weeks): no significant difference
bone morphology of tibia (μCT three-dimensional reconstruction) ([1]; 100 μg/kg per week, 8 weeks, compared with CED and ALN-treated mice): significantly improved
total BV/TV distribution ([1]; 100 μg/kg per week, 8 weeks, tibia cross-sections): restored
bone parameters ([1]; 2-month treatment): restored bone parameters
side effects ([1]; CED mice): no obvious side effects
bone fracture incidence ([1]; CED mice): 8.3%
dose that effectively attenuated CED progression ([1]; CED mice, intraperitoneal): 100 μg/kg per week
pSmad2/3 positive cells in tibia [8]: significantly decreased
bone remodeling of CED mice ([2]; 2-month treatment): restored normal bone remodeling
CD31+Emcn+ vessel surfaces (immunofluorescence) ([2]; 8-week treatment): rescued abnormal vessel formation
number of TRAP+ cells ([2]; 8-week treatment, diaphysis): decreased
number of Ocn+ cells ([2]; 8-week treatment, diaphysis, TRAP and Ocn co-staining): decreased
level of TGF-β1 ([2]; CED mice): decreased
number and distribution of Osx+, Col1α+, and Ocn+ cells ([2]; CED mice): rescued
type H vessels ([2]; CED mice): significantly decreased
number of Col1+ cells compared with Littermate group [2]: no significant difference
number of Ocn+ cells compared with Littermate group [2]: no significant difference
number of Osx+ cells compared with Littermate group [2]: no significant difference
LepR+pSmad2/3+ dual positive BMSC (immunofluorescence) [2]: significantly decreased
CD31+Emcn+ double positive cells (FACS of tibia bone marrow) [3]: significantly reduced
number of LepR+ cells in bone marrow (FACS) ([3]; listed as conjugate): significantly decreased
HE staining and pSmad2/3 staining of heart, liver, lung, and kidney [9]: normal tissue structures and TGF-β1 activation; also recorded: does not affect other organs
TGF-β1 signaling in tibias (pSmad2/3 staining) [10]: significantly reduced; also recorded: inhibited in a time-dependent manner

OCCOc1ccc2c(-c3c(-c4ccccn4)nn4c3CCC4)ccnc2c1 [Compound S-3, reference compound]
TGF-β1 signaling in tibias (pSmad2/3 staining) [10]: did not inhibit TGF-β1 signaling; also recorded: did not show significant differences

c1ccc(-c2nn3c(c2-c2ccnc4cc(OCCN5CCOCC5)ccc24)CCC3)nc1 [LY2109761]
bone metastasis in mice [11]: reduce a potential of bone metastasis

Cc1cccc(-c2[nH]c(C(C)(C)C)nc2-c2ccc3c(c2)OCO3)n1 [SB505124]
bone remodeling defects in CED mice [12]: rescued bone remodeling defects

Fc1ccc(Cl)cc1-c1nc(Nc2ccncc2)c2nccnc2n1 [SD-208]
bone metastasis in mice [11]: effective in treating mice with bone metastases
